The source of these data is patent US8461389B2, “Psycho-pharmaceuticals” (University College Dublin, National University of Ireland, …, priority 2008, dated 2013).

For test [1], the system named is C57B16 mice. As to the kind of experiment: Elevated X-maze. It counts as in vivo. The following applies: 3 and 5 mg/kg i.p. once daily for 7 days; FIG. 4. An excerpt:
The elevated X-Maze, otherwise known as the Elevated Plus Maze is a test that relies on the inherent conflict between exploration of a novel area and avoidance of its aversive features. The test may be used in male or female rats or mice or male gerbils. It is reliable in a wide range of strains and in group-housed or isolated animals. The maze consists of four arms in the form of an x or plus: two open arms and two arms of the same size, also with an open roof but enclosed by walls. The two open arms are opposite each other and converge into a central platform. The animal under investigating is observed by a video camera and its movements scored by the tracking software Ethovision by Noldus. During the experiment the animal is placed in the central platform of the maze facing an open arm and is observed for 5 minutes with the following being measured: number of entries into open arms, number of entries into closed arms, time spent in open arms, time spent in closed arms and finally the time spent in the central square (File et al., Current Protocols in Neuroscience (2004) 8.3.1-8.3.22).
The elevated X-maze has strong claims to validity as an animal model of anxiety and is of great utility in evaluating putative anxiety modulating drugs. The test is based on rodents' natural fear of heights and open spaces. […]

The subject of test [2] is patients with depressive states. The settings on record: Azoulay, Le Bezu and Leyritz 1956; cited from earlier work.
In test [3] the target is T1, serotonin 5HT2c receptor (Homo sapiens, UniProt P28335).
T1 construct: Novascreen (contract screen)
T1 sequence (P28335 33-458): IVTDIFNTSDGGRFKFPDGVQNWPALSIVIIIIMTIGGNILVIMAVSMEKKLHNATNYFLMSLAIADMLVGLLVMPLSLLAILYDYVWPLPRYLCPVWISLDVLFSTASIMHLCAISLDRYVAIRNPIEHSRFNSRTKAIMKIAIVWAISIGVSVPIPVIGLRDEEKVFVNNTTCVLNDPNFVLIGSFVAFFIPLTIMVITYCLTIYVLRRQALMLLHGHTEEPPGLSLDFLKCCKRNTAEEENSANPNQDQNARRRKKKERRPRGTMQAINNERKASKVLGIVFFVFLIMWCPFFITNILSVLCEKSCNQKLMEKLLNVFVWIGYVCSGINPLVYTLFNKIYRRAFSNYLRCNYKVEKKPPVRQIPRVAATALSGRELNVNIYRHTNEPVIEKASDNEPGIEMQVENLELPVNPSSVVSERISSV
As to the kind of experiment: Novascreen receptor affinity screen (competition with reference ligand), 5HT2c. The test is classed as binding. The settings on record: 1 μM Captodiamine competing with a reference ligand; read-out: percent target inhibition, serotonin 5HT2c receptor. As to the method:
The Structure (FIG. 9A), receptor affinity (FIG. 9B), pharmacokinetics (FIG. 9C) and growth factor modulation (FIG. 9D) of Captodiamine are provided. Analysis of receptor affinities was performed by Novascreen™ and those displacing >20% of the natural ligand are indicated by the filled boxes. Blood levels of Captodiamine were determined by GC mass spectroscopy. In separate samples taken from a cannulated jugular at increasing time intervals following a single intraperitoneal injection of tha drug (5 mg/kg). Growth factor analysis was performed using tissue homogenates and ELISA assays specific for each growth factor (Promega). Values were analysed using a Student t-test and those with a p value<0.05 were accepted as significant and are indicated with an asterisk.
The higher the target inhibition value, the greater the affinity Captodiamine has for this particular receptor as it displaces a greater proportion of the reference ligand. This assay is an automated high throughput assay performed on cell lines that express only one type of receptor and was carried out by Novascreen (www.novascreen.com). Receptor affinity is a good starting point for determining the mechanism of action for a particular compound.

For orientation: inhibition means the percentage by which the read-out fell short of the control.

For the compound `CCCCSc1ccc(C(SCCN(C)C)c2ccccc2)cc1` (stereo not drawn) [Captodiamine, 2-[(4-butylsulfanylphenyl)-phenyl-methyl]sulfanyl-N,N-dimethyl-ethanamin], the “time exploring the open arms of the elevated X-maze” value in test [1] is on record as “significantly longer periods exploring the open arms”. In addition, the “clinical usefulness in depressive states resistant to largactil” value in test [2] is “useful in only one patient”. Also, the inhibition at 1 µM in test [3] was more than 80%.
